Each structure is given as a SMILES string.

One assay has as its system HOSE2C. Put plainly: drug sensitivity score (DSS) from 5-point dose-response viability curve (DSS (area-under-curve based score)); higher = more sensitive (stronger growth inhibition or killing); extreme values may be limits of the assay. Particulars: exposure time: 72 h; concentration range: 5 concentrations over 10,000-fold range. An outline of the steps: (§1)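 Each cell line and drug received a drug sensitivity score from Breeze software, where higher means more sensitive. Zero stands for no response. Scores came from CellTiter-Glo viability readings of ovarian cancer and normal ovarian cells, 1,500 per well in 384-well plates, after 3 days at 37°C, 5% CO2 with drugs at five concentrations over a 10,000-fold range.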
Compound `Oc1ncnc2[nH]ncc12` [Allopurinol] displayed a drug sensitivity score of 0.

Compound `Cc1nc(NC(=O)N2CCC[C@H]2C(N)=O)sc1-c1ccnc(C(C)(C)C(F)(F)F)c1` [Alpelisib] gave a drug sensitivity score of 3.2. Same read-out and setting: the value for `O=C(Nc1cc(Oc2cc(F)c(NC(=O)C3(C(=O)Nc4ccc(F)cc4)CC3)cc2F)ccn1)C1CC1` [Altiratinib] was 3.4; that for `CN1CC[C@H](c2c(O)cc(O)c3c(=O)cc(-c4ccccc4Cl)oc23)[C@H](O)C1` [Alvocidib] was 11.9. As to `CCN(CC)CCNC(=O)c1c(C)[nH]c(/C=C2\C(=O)Nc3ccc(-c4csc(-c5ccccc5)n4)cc32)c1C` [Amcasertib], the drug sensitivity score came to 5.2. `CCC1(c2ccc(N)cc2)CCC(=O)NC1=O` (configuration not stated) [Aminoglutethimide] returned a drug sensitivity score of 0. The same measure, in the same setting: the value for `COc1cc(NS(C)(=O)=O)ccc1Nc1c2ccccc2nc2ccccc12` [Amsacrine] was 16.7; that for `S=C(NCc1ccc2c(c1)OCO2)N1CCN(c2ncnc3c2oc2ccccc23)CC1` [Amuvatinib] was 0.

For `O=C1CN2Cc3c(ccc(Cl)c3Cl)N=C2N1` [Anagrelide], the drug sensitivity score was determined as 0. As for `CC(C)(C#N)c1cc(Cn2cncn2)cc(C(C)(C)C#N)c1` [Anastrozole], the drug sensitivity score stood at 0. On to `CNC(=O)c1ccc(N2C(=S)N(c3cnc(C#N)c(C(F)(F)F)c3)C(=O)C23CCC3)cc1F` [Apalutamide], for which the drug sensitivity score stood at 0.

Take `N#CC1(c2ccc(NC(=O)c3cccnc3NCc3ccncc3)cc2)CCCC1` [Apatinib]: the drug sensitivity score worked out at 0. In turn, `O=C(Nc1ccc(OC(F)(F)Cl)cc1)c1cnc(N2CC[C@@H](O)C2)c(-c2cc[nH]n2)c1` [Asciminib] gave a drug sensitivity score of 0. Same read-out and setting: the value for `CC(C)c1c(C(=O)Nc2ccccc2)c(-c2ccccc2)c(-c2ccc(F)cc2)n1CC[C@@H](O)C[C@@H](O)CC(=O)O` [Atorvastatin] was 10.8; that for `CC(=O)OC[C@H]1O[C@@H]([S-])[C@H](OC(C)=O)[C@@H](OC(C)=O)[C@@H]1OC(C)=O.CCP(CC)CC.[Au+]` [Auranofin] was 13.3. Same read-out and setting: the value for `CNC(=O)c1ccccc1Sc1ccc2c(/C=C/c3ccccn3)n[nH]c2c1` [Axitinib] was 6.2.

The subject of the next assay is OV90. The assay is described as above. As to conditions: exposure time: 72 h; concentration range: 5 concentrations over 10,000-fold range. An outline of the steps: as §1
`COc1ccc(-c2ccc3c(N4CCOC[C@@H]4C)nc(N4CCOC[C@@H]4C)nc3n2)cc1CO` [AZD8055] yielded a drug sensitivity score of 20.8. On the same count and under the same terms, for `N#Cc1ccc2[nH]c(O)c(-c3ccc(CN4CCOCC4)cn3)c2c1` [AZD-1080] the value was 0. Still for that read-out and setting: the value for `Cc1ncc(-c2ccnc(Nc3ccc(S(C)(=O)=O)cc3)n2)n1C(C)C` [AZD-5438] was 4.4; that for `Cc1cc([C@@H](C)Nc2ccccc2C(=O)O)c2nc(N3CCOCC3)cc(=O)n2c1` [AZD-6482] was 0; that for `C[C@@H](Nc1cc(F)cc(F)c1)c1cc(C(=O)N(C)C)cc2c(=O)cc(N3CCOCC3)oc12` [AZD-8186] was 0.1.

As to `CCN1CCN(Cc2ccc(Nc3ncc(F)c(-c4cc(F)c5nc(C)n(C(C)C)c5c4)n3)nc2)CC1` [Abemaciclib], the drug sensitivity score was 1.5. The same measure, in the same setting: for `CN(C)Cc1c(C(=O)NCCOc2ccc(C(=O)NO)cc2)oc2ccccc12` [Abexinostat] the value was 16.5; for `C[C@]12CC[C@H](O)CC1=CC[C@@H]1[C@@H]2CC[C@]2(C)C(c3cccnc3)=CC[C@@H]12` [Abiraterone], 0.5. In turn, `CC#CC(=O)N1CCC[C@H]1c1nc(-c2ccc(C(=O)Nc3ccccn3)cc2)c2c(N)nccn12` [Acalabrutinib] showed a drug sensitivity score of 0. In the case of `COc1cc(C)c(/C=C/C(C)=C/C=C/C(C)=C/C(=O)O)c(C)c1C` [Acitretin], the drug sensitivity score turned out to be 0.2.

Compound `CN(C)C/C=C/C(=O)Nc1cc2c(Nc3ccc(F)c(Cl)c3)ncnc2cc1O[C@H]1CCOC1` [Afatinib] registered a drug sensitivity score of 0. On the same count and under the same terms, for `Cn1ncc(Cl)c1-c1cc(C(=O)N[C@H](CN)Cc2cccc(F)c2)sc1Cl` [Afuresertib] the value was 0.9.

Regarding `COc1cccc2c1C(=O)c1c(O)c3c(c(O)c1C2=O)C[C@@](O)(/C(CO)=N/NC(=O)CCCCCN1C(=O)C=CC1=O)C[C@@H]3O[C@H]1C[C@H](N)[C@H](O)[C@H](C)O1` [Aldoxorubicin], the drug sensitivity score stood at 8.3. For the compound `CCc1cc2c(cc1N1CCC(N3CCOCC3)CC1)C(C)(C)c1[nH]c3cc(C#N)ccc3c1C2=O` [Alectinib], the drug sensitivity score worked out at 0. In turn, `COc1cc(Nc2ncc3c(n2)-c2ccc(Cl)cc2C(c2c(F)cccc2OC)=NC3)ccc1C(=O)O` [Alisertib] yielded a drug sensitivity score of 5.4. Still for that read-out and setting: for `Oc1ncnc2[nH]ncc12` [Allopurinol] the value was 0.3; for `Cc1nc(NC(=O)N2CCC[C@H]2C(N)=O)sc1-c1ccnc(C(C)(C)C(F)(F)F)c1` [Alpelisib], 1; for `O=C(Nc1cc(Oc2cc(F)c(NC(=O)C3(C(=O)Nc4ccc(F)cc4)CC3)cc2F)ccn1)C1CC1` [Altiratinib], 0. `CN1CC[C@H](c2c(O)cc(O)c3c(=O)cc(-c4ccccc4Cl)oc23)[C@H](O)C1` [Alvocidib] gave a drug sensitivity score of 14.7. The same measure, in the same setting: for `CCN(CC)CCNC(=O)c1c(C)[nH]c(/C=C2\C(=O)Nc3ccc(-c4csc(-c5ccccc5)n4)cc32)c1C` [Amcasertib] the value was 0; for `CCC1(c2ccc(N)cc2)CCC(=O)NC1=O` (configuration not stated) [Aminoglutethimide], 0; for `COc1cc(NS(C)(=O)=O)ccc1Nc1c2ccccc2nc2ccccc12` [Amsacrine], 7.3. Same read-out and setting: for `S=C(NCc1ccc2c(c1)OCO2)N1CCN(c2ncnc3c2oc2ccccc23)CC1` [Amuvatinib] the value was 3.2; for `O=C1CN2Cc3c(ccc(Cl)c3Cl)N=C2N1` [Anagrelide], 0. `CC(C)(C#N)c1cc(Cn2cncn2)cc(C(C)(C)C#N)c1` [Anastrozole] came in with a drug sensitivity score of 0. Same read-out and setting: for `CNC(=O)c1ccc(N2C(=S)N(c3cnc(C#N)c(C(F)(F)F)c3)C(=O)C23CCC3)cc1F` [Apalutamide] the value was 0; for `N#CC1(c2ccc(NC(=O)c3cccnc3NCc3ccncc3)cc2)CCCC1` [Apatinib], 0; for `O=C(Nc1ccc(OC(F)(F)Cl)cc1)c1cnc(N2CC[C@@H](O)C2)c(-c2cc[nH]n2)c1` [Asciminib], 0. With `CC(C)c1c(C(=O)Nc2ccccc2)c(-c2ccccc2)c(-c2ccc(F)cc2)n1CC[C@@H](O)C[C@@H](O)CC(=O)O` [Atorvastatin], the drug sensitivity score worked out at 2.3. For the compound `CC(=O)OC[C@H]1O[C@@H]([S-])[C@H](OC(C)=O)[C@@H](OC(C)=O)[C@@H]1OC(C)=O.CCP(CC)CC.[Au+]` [Auranofin], the drug sensitivity score is 3.5. Still for that read-out and setting: the value for `CNC(=O)c1ccccc1Sc1ccc2c(/C=C/c3ccccn3)n[nH]c2c1` [Axitinib] was 0.1.

The record behind these values is the supplement of paper PMC11616607.
